Measured values taken from PMC12211128, “Safety, tolerability, pharmacokinetic and pharmacodynamic effects of the muscarinic M1 positive allosteric modulator VU0467319 for Alzheimer’s disease: a single ascending-dose study in healthy participants” (Alzheimer's Research & Therapy, 2025).

Tested on: healthy participants
Assay: Auditory oddball ERP task
Format: in vivo, human
Conditions: for Auditory oddball P300 amplitude, targets vs standards, effect size d: post-dose session; for Mean amplitude over the parietal cortex, Auditory Oddball, Standard trials / Mean amplitude over the parietal cortex, Auditory Oddball, Target trials: mean (SD)
Procedure: Following the cognitive battery, an electrophysiology recording was set up. Visual and auditory ERPs were recorded using a 128-channel Geodesic sensor net (EGI, Inc., Eugene, OR; [37, 38]). The electrophysiological recording was sampled at 250 Hz with filters set at 0.1–100 Hz. During data collection, all electrodes were referenced to vertex (Cz). The recording session lasted approximately 30 min.
Auditory and visual oddball tasks were performed to assess attention in auditory and visual modalities. In the auditory task, a pair of two pure tones (single formant) at 1000 and 1500 Hz were the stimuli. In the visual task, the stimuli were a pair of letters (X & O). The assignment of stimuli to standard and target conditions (70% & 30% of the trials respectively), was counterbalanced across participants. Each participant was asked to press a different button using their preferred hand upon presentation of the standard and the target stimulus. On average, auditory and visual tasks lasted 6–7 min each.
ERP processing and Analysis: Single-trial ERPs were derived by extracting a 100-ms pre-stimulus baseline and a 900 ms post-stimulus interval. The trials were screened for ocular and motor artifacts using automated procedures with standard threshold settings (NetStation 4.4, EGI, Inc) and verified using manual review. Data for electrodes characterized by consistent artifacts were replaced using the spherical spline interpolation algorithm. If more than 15 electrodes within a trial were noisy, the entire trial was discarded. Remaining artifact-free trials were averaged separately for each condition (standard vs. oddball; novel vs. repeated images), re-referenced to an average reference, and baseline corrected. For individual participant’s data to be included in the analysis, each condition average had to have a minimum of 10 artifact-free trials.
Statistical analysis focused on a priori selected electrode clusters corresponding to frontal, central, and parietal midline locations (Fz, Cz, Pz in 10–20 notation), confirmed using spatial principal components analysis. Mean amplitudes were calculated within 250–400 ms (frontal P3a), 300–500 ms (parietal P300), and 500–800 ms (parietal P600) temporal windows. These a-priori selected windows were confirmed using temporal principal components analysis.
Analyses for the auditory and visual oddball ERPs focused on the parietal (P300) and frontal (P3a) responses to standard and target stimuli. Differences in the amplitude, latency, and scalp topography of the responses were examined. […] For the incidental memory paradigm, differences in the mean amplitude of the parietal P300/P600 responses to repeated vs. novel presentations. The amplitude of the parietal P300/P600 waveform measures stimulus recognition. A larger positive amplitude for repeated compared to novel images indicates spontaneous formation of a memory trace.
Auditory and visual oddball tasks were performed to assess attention in auditory and visual modalities (Comerchero & Polich, 1999; Polich, 2007). In the auditory task, a pair of two pure tones (single formant) at 1000 and 1500 Hz were the stimuli. Tones were equated in duration (300 ms) and rise/decay times. Tones were presented at 75 dB SPL (measured at the ear) through a speaker positioned 1 meter in front of the participant. In the visual task, the stimuli were a pair of letters (X & O). All stimuli were presented in random order for 500 ms in the center of a computer monitor positioned 1 meter in front of the participant. For both auditory and visual tasks, 200 trials were presented with the inter-stimulus interval varying randomly between 1000-1300 ms to prevent habituation to stimulus onset. The assignment of stimuli to standard and target conditions (70% & 30% of the trials respectively), was counterbalanced across participants. […]

[1] = VU319 120 mg, fasting, post-drug session, n = 9
[2] = VU319 120 mg, fasting, pre-drug session, n = 9
[3] = VU319 120 mg, fed, post-drug session, n = 9
[4] = VU319 120 mg, fed, pre-drug session, n = 9

## Cn1cc2c(-c3cc(F)c(CN4Cc5ncccc5C4=O)c(F)c3)cccc2n1 [VU319]
60 mg, p = 0.002
  Auditory oddball parietal amplitude, target vs standard, post- vs pre-dose, effect size d: 1.32
120 mg, SAD, p = 0.18
  Auditory oddball parietal amplitude, target vs standard, post- vs pre-dose, effect size d: 0.64
120 mg, fasted, p = 0.033
  Auditory oddball P300 amplitude, targets vs standards, effect size d: 0.8
120 mg, fed, p = 0.25
  Auditory oddball P300 amplitude, targets vs standards, effect size d: 0.85
SAD study, 60 mg, Post-Drug
  Mean amplitude over the parietal cortex, Auditory Oddball, Standard trials: 1.31 (1.02) µV
  Mean amplitude over the parietal cortex, Auditory Oddball, Target trials: 3.69 (1.83) µV
SAD study, 60 mg, Pre-Drug
  Mean amplitude over the parietal cortex, Auditory Oddball, Standard trials: 1.23 (0.96) µV
  Mean amplitude over the parietal cortex, Auditory Oddball, Target trials: 2.0 (1.32) µV
SAD study, 120 mg, Post-Drug
  Mean amplitude over the parietal cortex, Auditory Oddball, Standard trials: 0.85 (1.41) µV
  Mean amplitude over the parietal cortex, Auditory Oddball, Target trials: 3.18 (1.24) µV
SAD study, 120 mg, Pre-Drug
  Mean amplitude over the parietal cortex, Auditory Oddball, Standard trials: 1.83 (1.04) µV
  Mean amplitude over the parietal cortex, Auditory Oddball, Target trials: 3.23 (1.85) µV
SAD study, 240 mg, Post-Drug
  Mean amplitude over the parietal cortex, Auditory Oddball, Standard trials: 1.04 (1.54) µV
  Mean amplitude over the parietal cortex, Auditory Oddball, Target trials: 2.42 (1.53) µV
SAD study, 240 mg, Pre-Drug
  Mean amplitude over the parietal cortex, Auditory Oddball, Standard trials: 1.34 (1.02) µV
  Mean amplitude over the parietal cortex, Auditory Oddball, Target trials: 2.94 (1.57) µV
SAD study, 400 mg, Post-Drug
  Mean amplitude over the parietal cortex, Auditory Oddball, Standard trials: 0.48 (0.92) µV
  Mean amplitude over the parietal cortex, Auditory Oddball, Target trials: 2.12 (0.34) µV
SAD study, 400 mg, Pre-Drug
  Mean amplitude over the parietal cortex, Auditory Oddball, Standard trials: 0.66 (1.09) µV
  Mean amplitude over the parietal cortex, Auditory Oddball, Target trials: 1.7 (0.67) µV
SAD study, 600 mg, Post-Drug
  Mean amplitude over the parietal cortex, Auditory Oddball, Standard trials: 1.84 (1.22) µV
  Mean amplitude over the parietal cortex, Auditory Oddball, Target trials: 4.31 (2.13) µV
SAD study, 600 mg, Pre-Drug
  Mean amplitude over the parietal cortex, Auditory Oddball, Standard trials: 0.74 (1.24) µV
  Mean amplitude over the parietal cortex, Auditory Oddball, Target trials: 3.08 (2.61) µV
[1]
  Mean amplitude over the parietal cortex, Auditory Oddball, Standard trials: 1.17 (1.66) µV
  Mean amplitude over the parietal cortex, Auditory Oddball, Target trials: 2.56 (2.38) µV
[2]
  Mean amplitude over the parietal cortex, Auditory Oddball, Standard trials: 1.09 (1.78) µV
  Mean amplitude over the parietal cortex, Auditory Oddball, Target trials: 2.11 (2.11) µV
[3]
  Mean amplitude over the parietal cortex, Auditory Oddball, Standard trials: -0.07 (0.96) µV
  Mean amplitude over the parietal cortex, Auditory Oddball, Target trials: 0.8 (1.11) µV
[4]
  Mean amplitude over the parietal cortex, Auditory Oddball, Standard trials: 0.51 (1.65) µV
  Mean amplitude over the parietal cortex, Auditory Oddball, Target trials: 2.32 (1.46) µV
